PubChem BioAssay (NCI)
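Grown in 96-well plates, cells were treated for 48 hours with each compound at five concentrations. Insufficient inhibition: endpoint recorded as highest concentration tested. GI50 is the concentration that inhibits growth by half. TGI: concentration producing complete growth inhibition.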

How the values were obtained:
Test in all cases: inhibition of tumour cell growth, NCI panel, 48 h
A549 NSCLC = test system: A549 NSCLC
EKVX NSCLC = test system: EKVX NSCLC
IGROV1 ovarian = test system: IGROV1 ovarian
KM12 colon = test system: KM12 colon
LOX IMVI melanoma = test system: LOX IMVI melanoma
NCI-H226 lung = test system: NCI-H226 lung
OVCAR-8 ovarian = test system: OVCAR-8 ovarian
PC-3 prostate = test system: PC-3 prostate
SNB-19 CNS = test system: SNB-19 CNS
SNB-75 CNS = test system: SNB-75 CNS

## O=C(O)c1cc(=O)[nH]c(SCc2ccccc2)n1
A549 NSCLC
  TGI: > 100 µM
EKVX NSCLC
  TGI: > 100 µM
IGROV1 ovarian
  TGI: > 100 µM
KM12 colon
  TGI: > 100 µM
LOX IMVI melanoma
  TGI: > 100 µM
NCI-H226 lung
  TGI: > 100 µM
OVCAR-8 ovarian
  TGI: > 100 µM
PC-3 prostate
  TGI: > 100 µM
SNB-19 CNS
  TGI: > 100 µM
SNB-75 CNS
  TGI: > 100 µM

## C=CCc1cc(-c2cc(CC=C)c(O)c(CNC)c2)cc(CNC)c1O
A549 NSCLC
  TGI: 33 µM
IGROV1 ovarian
  TGI: 32.7 µM
KM12 colon
  TGI: 30.2 µM
LOX IMVI melanoma
  TGI: 27.2 µM
NCI-H226 lung
  TGI: 31 µM
OVCAR-8 ovarian
  TGI: 32.5 µM
SNB-19 CNS
  TGI: 26.1 µM
SNB-75 CNS
  TGI: 24.3 µM

## CSc1nc(NC2OCC(OC(C)=O)C(OC(C)=O)C2OC(C)=O)c(N=C(C)C(C)=O)c(=O)[nH]1 (centres undefined)
A549 NSCLC
  TGI: > 100 µM
EKVX NSCLC
  TGI: > 100 µM
IGROV1 ovarian
  TGI: > 100 µM
KM12 colon
  TGI: > 100 µM
LOX IMVI melanoma
  TGI: > 100 µM
OVCAR-8 ovarian
  TGI: > 100 µM
SNB-19 CNS
  TGI: > 100 µM
SNB-75 CNS
  TGI: > 100 µM

## O=Cc1cc([N+](=O)[O-])no1
IGROV1 ovarian
  TGI: > 100 µM
KM12 colon
  TGI: 54.2 µM
LOX IMVI melanoma
  TGI: > 100 µM
NCI-H226 lung
  TGI: > 100 µM
OVCAR-8 ovarian
  TGI: > 100 µM
PC-3 prostate
  TGI: > 100 µM
SNB-19 CNS
  TGI: > 100 µM
SNB-75 CNS
  TGI: > 100 µM

## O=C(C[C@H](NC(=O)OCc1ccccc1)C(=O)NC1Cc2ccccc2OC1=O)OCc1ccccc1 (some centres undefined)
IGROV1 ovarian
  TGI: > 100 µM
KM12 colon
  TGI: > 100 µM
NCI-H226 lung
  TGI: > 100 µM
OVCAR-8 ovarian
  TGI: > 100 µM
PC-3 prostate
  TGI: 70.2 µM
SNB-19 CNS
  TGI: > 100 µM
SNB-75 CNS
  TGI: > 100 µM

## Cc1nc2c(n1C)C(=O)c1nc(CBr)[nH]c(=O)c1C2=O
A549 NSCLC
  TGI: > 100 µM
EKVX NSCLC
  TGI: 54.9 µM
IGROV1 ovarian
  TGI: > 100 µM
LOX IMVI melanoma
  TGI: > 100 µM
OVCAR-8 ovarian
  TGI: > 100 µM
SNB-19 CNS
  TGI: > 100 µM

## CCCCCCCCCCCCCCCc1ccc(OCC(O)CO)cc1 (centres undefined)
A549 NSCLC
  TGI: 50.1 µM
EKVX NSCLC
  TGI: 78.5 µM
IGROV1 ovarian
  TGI: > 100 µM
KM12 colon
  TGI: 31.7 µM
LOX IMVI melanoma
  TGI: 32.1 µM
NCI-H226 lung
  TGI: 58.5 µM
OVCAR-8 ovarian
  TGI: 72.7 µM
SNB-19 CNS
  TGI: > 100 µM
SNB-75 CNS
  TGI: 72 µM

## CN(C)c1nc(N(C)C)nc(N(C)CN(C)c2ccc(Cl)cc2)n1
A549 NSCLC
  TGI: > 100 µM
IGROV1 ovarian
  TGI: > 100 µM
KM12 colon
  TGI: > 100 µM
LOX IMVI melanoma
  TGI: > 100 µM
NCI-H226 lung
  TGI: > 100 µM
OVCAR-8 ovarian
  TGI: > 100 µM
SNB-19 CNS
  TGI: > 100 µM
SNB-75 CNS
  TGI: > 100 µM

## CS(=O)(=O)OC1CN2CCC1CC2 (centres undefined)
A549 NSCLC
  TGI: > 100 µM
EKVX NSCLC
  TGI: > 100 µM
IGROV1 ovarian
  TGI: > 100 µM
KM12 colon
  TGI: > 100 µM
LOX IMVI melanoma
  TGI: > 100 µM
OVCAR-8 ovarian
  TGI: > 100 µM
PC-3 prostate
  TGI: > 100 µM
SNB-19 CNS
  TGI: > 100 µM
SNB-75 CNS
  TGI: > 100 µM

## CCN(CC)CCCC(C)Nc1ccnc2cc3ccccc3cc12 (centres undefined)
A549 NSCLC
  TGI: > 100 µM
EKVX NSCLC
  TGI: > 100 µM
IGROV1 ovarian
  TGI: 50.7 µM
KM12 colon
  TGI: 33.8 µM
LOX IMVI melanoma
  TGI: > 100 µM
NCI-H226 lung
  TGI: > 100 µM
OVCAR-8 ovarian
  TGI: 54.2 µM
PC-3 prostate
  TGI: > 100 µM
SNB-19 CNS
  TGI: 84.5 µM
SNB-75 CNS
  TGI: 20.1 µM

## COc1ccc(C2CC(c3cccc(Nc4ccncc4)c3)=NN2c2ccc(Cl)cc2)cc1 (centres undefined)
A549 NSCLC
  GI50: 1.87 µM
  TGI: 3.65 µM
EKVX NSCLC
  GI50: 1.66 µM
  TGI: 3.27 µM
IGROV1 ovarian
  GI50: 1.68 µM
  TGI: 3.28 µM
KM12 colon
  GI50: 1.72 µM
  TGI: 3.37 µM
LOX IMVI melanoma
  GI50: 1.66 µM
  TGI: 3.03 µM
NCI-H226 lung
  GI50: 2.27 µM
  TGI: 7.73 µM
PC-3 prostate
  GI50: 1.44 µM
  TGI: 2.96 µM
SNB-19 CNS
  GI50: 1.66 µM
  TGI: 3.23 µM
SNB-75 CNS
  GI50: 1.41 µM
  TGI: 3.01 µM

## CCN1C=C/C(=C\C=C/c2cc[n+](CC)c3ccccc23)c2ccccc21
A549 NSCLC
  TGI: 21.2 µM
EKVX NSCLC
  TGI: 47 µM
IGROV1 ovarian
  TGI: 12.4 µM
KM12 colon
  TGI: 12.4 µM
NCI-H226 lung
  TGI: 16 µM
OVCAR-8 ovarian
  TGI: 17.1 µM
PC-3 prostate
  TGI: 17.3 µM
SNB-19 CNS
  TGI: 15.2 µM
SNB-75 CNS
  TGI: 7.57 µM

## CC(C)CCC[C@@H](C)[C@H]1CC[C@H]2[C@@H]3CC[C@H]4C[C@H](N)CC[C@]4(C)[C@H]3CC[C@]12C
A549 NSCLC
  TGI: 48.1 µM
EKVX NSCLC
  TGI: 43.4 µM
IGROV1 ovarian
  TGI: 54.3 µM
KM12 colon
  TGI: > 100 µM
LOX IMVI melanoma
  TGI: 83 µM
NCI-H226 lung
  TGI: 49.2 µM
OVCAR-8 ovarian
  TGI: 86.4 µM
PC-3 prostate
  TGI: 20.2 µM
SNB-19 CNS
  TGI: 46.9 µM
SNB-75 CNS
  TGI: 57.1 µM

## Nc1cc2c(nnn2C2OC(COCc3ccccc3)C(OCc3ccccc3)C2OCc2ccccc2)c(=O)[nH]1 (centres undefined)
A549 NSCLC
  TGI: > 100 µM
EKVX NSCLC
  TGI: 46.1 µM
IGROV1 ovarian
  TGI: > 100 µM
KM12 colon
  TGI: 54.6 µM
LOX IMVI melanoma
  TGI: 53.2 µM
NCI-H226 lung
  TGI: 53.7 µM
OVCAR-8 ovarian
  TGI: > 100 µM
PC-3 prostate
  TGI: > 100 µM
SNB-19 CNS
  TGI: > 100 µM
SNB-75 CNS
  TGI: > 100 µM

## c1ccc(C2CC(c3cccc(Nc4ccncc4)c3)=NN2c2ccccc2)cc1 (centres undefined)
EKVX NSCLC
  GI50: 1.61 µM
  TGI: 3.42 µM
IGROV1 ovarian
  GI50: 1.68 µM
  TGI: 3.18 µM
KM12 colon
  GI50: 1.74 µM
  TGI: 3.44 µM
LOX IMVI melanoma
  GI50: 1.66 µM
  TGI: 3.05 µM
NCI-H226 lung
  GI50: 8.39 µM
  TGI: 28.7 µM
PC-3 prostate
  GI50: 1.69 µM
  TGI: 3.58 µM
SNB-19 CNS
  GI50: 1.63 µM
  TGI: 3 µM
SNB-75 CNS
  GI50: 1.32 µM
  TGI: 2.88 µM

## CC(C)(C)OC(=O)NCC(=O)NC1c2ccsc2/C(=N/O)[C@H]1O (some centres undefined)
A549 NSCLC
  TGI: > 100 µM
EKVX NSCLC
  TGI: > 100 µM
IGROV1 ovarian
  TGI: > 100 µM
LOX IMVI melanoma
  TGI: > 100 µM
NCI-H226 lung
  TGI: > 100 µM
OVCAR-8 ovarian
  TGI: > 100 µM
PC-3 prostate
  TGI: > 100 µM
SNB-19 CNS
  TGI: > 100 µM

## CCCCCCNC(=O)c1cc(CCc2cc(O)ccc2O)ccc1O
A549 NSCLC
  TGI: 36.3 µM
EKVX NSCLC
  TGI: 15.8 µM
IGROV1 ovarian
  TGI: 5.66 µM
KM12 colon
  TGI: 39.6 µM
LOX IMVI melanoma
  TGI: 19.3 µM
NCI-H226 lung
  TGI: 19.8 µM
OVCAR-8 ovarian
  TGI: 17.6 µM
PC-3 prostate
  TGI: 6.49 µM
SNB-19 CNS
  TGI: > 50.6 µM
SNB-75 CNS
  TGI: 14.4 µM

## COc1ccc2c(c1)CCN=C2Cc1cc(OC)c(OC)cc1CCCl
A549 NSCLC
  TGI: > 100 µM
EKVX NSCLC
  TGI: > 100 µM
IGROV1 ovarian
  TGI: > 100 µM
KM12 colon
  TGI: > 100 µM
LOX IMVI melanoma
  TGI: > 100 µM
NCI-H226 lung
  TGI: > 100 µM
OVCAR-8 ovarian
  TGI: > 100 µM
PC-3 prostate
  TGI: > 100 µM
SNB-19 CNS
  TGI: > 100 µM
SNB-75 CNS
  TGI: > 100 µM

## Cc1ccc(NP(=O)(Oc2ccccc2)N(CCCl)CCCl)cc1 (centres undefined)
A549 NSCLC
  TGI: > 100 µM
EKVX NSCLC
  TGI: > 100 µM
IGROV1 ovarian
  TGI: > 100 µM
KM12 colon
  TGI: > 100 µM
NCI-H226 lung
  TGI: > 100 µM
OVCAR-8 ovarian
  TGI: > 100 µM
SNB-75 CNS
  TGI: > 100 µM

## CN(c1cc2ncc(=O)[nH]c2cc1NC(N)=NCc1ccc(Cl)cc1)C1CCCCC1
A549 NSCLC
  GI50: 9.11 µM
  TGI: 18.8 µM
EKVX NSCLC
  GI50: 6.65 µM
  TGI: 14.5 µM
IGROV1 ovarian
  GI50: 6.93 µM
  TGI: 15 µM
KM12 colon
  GI50: 4.52 µM
  TGI: 10.9 µM
LOX IMVI melanoma
  GI50: 1.75 µM
  TGI: 5.88 µM
NCI-H226 lung
  GI50: 8.1 µM
  TGI: 18 µM
OVCAR-8 ovarian
  GI50: 10.4 µM
  TGI: 23.3 µM
PC-3 prostate
  GI50: 5.94 µM
  TGI: 12.5 µM
SNB-75 CNS
  GI50: 2.87 µM
  TGI: 10.1 µM

## CC(=O)Oc1c(C)c2c(O)c3c1C1=C(OCOC1=C(C)C3=O)/C(C)=C\C(C)(O)C(O)C(C)C(O)C1C(=O)OC(C(C)C1O)C(C)(O)/C=C/C=C(C)C(=O)N2 (centres undefined)
A549 NSCLC
  TGI: > 100 µM
EKVX NSCLC
  TGI: > 100 µM
IGROV1 ovarian
  TGI: 52.7 µM
KM12 colon
  TGI: > 100 µM
LOX IMVI melanoma
  TGI: > 100 µM
NCI-H226 lung
  TGI: 75.7 µM
OVCAR-8 ovarian
  TGI: > 100 µM
PC-3 prostate
  TGI: > 100 µM
SNB-19 CNS
  TGI: > 100 µM
SNB-75 CNS
  TGI: > 100 µM
